We go through 25 compounds from patent publication US8134015B2, “Compound inhibiting in vivo phosphorous transport and medicine containing the same” (Kyowa Hakko Kirin Co., Ltd., priority 2003, dated 2012).

Counter-ions that a name gives are not always drawn. A value given as a limit tells only on which side of the number the result lay.

One may read the IC50 as the midpoint of a concentration-inhibition curve. The term inhibition denotes the change of the read-out against control, counted positive when it falls. A higher inhibition goes with a response far below the control.

The first experiment has as its target T1, rat NaPi-2b (Rattus norvegicus, UniProt Q9JJ09).
T1 construct: expressed in transfected cells; host or cells: Xenopus oocytes injected with cRNA
T1 sequence (Q9JJ09 1-695): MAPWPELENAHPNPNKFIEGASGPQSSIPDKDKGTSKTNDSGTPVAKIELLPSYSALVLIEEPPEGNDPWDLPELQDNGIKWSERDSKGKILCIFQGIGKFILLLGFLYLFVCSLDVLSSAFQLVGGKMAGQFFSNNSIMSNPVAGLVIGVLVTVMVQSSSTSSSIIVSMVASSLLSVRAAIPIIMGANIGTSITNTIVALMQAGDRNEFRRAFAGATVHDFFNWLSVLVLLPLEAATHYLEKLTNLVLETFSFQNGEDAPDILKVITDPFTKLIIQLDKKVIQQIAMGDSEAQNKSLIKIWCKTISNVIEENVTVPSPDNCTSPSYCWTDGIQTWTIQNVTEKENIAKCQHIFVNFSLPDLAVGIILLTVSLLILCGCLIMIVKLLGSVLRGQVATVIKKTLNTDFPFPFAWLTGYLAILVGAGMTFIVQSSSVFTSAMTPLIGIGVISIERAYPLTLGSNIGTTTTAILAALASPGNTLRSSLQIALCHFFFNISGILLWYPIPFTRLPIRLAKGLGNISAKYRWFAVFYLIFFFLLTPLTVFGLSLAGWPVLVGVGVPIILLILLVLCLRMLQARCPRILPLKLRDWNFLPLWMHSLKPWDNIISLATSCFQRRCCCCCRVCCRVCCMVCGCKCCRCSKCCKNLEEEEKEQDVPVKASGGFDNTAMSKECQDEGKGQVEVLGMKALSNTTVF
Briefly: Sodium-dependent phosphate uptake of Xenopus oocytes which expressed NaPi-2b (32P). The following applies: Xenopus oocytes expressing rat NaPi-2b, 32P radioactive phosphorus; read-out: IC50 (phosphate uptake inhibitory activity). The class given is cell-based. The protocol: Pharmacological Test Example 1
Experiment of Sodium-Dependent Phosphate Uptake of Xenopus oocytes which Expressed NaPi-2b
Degenerate primers were prepared from sequences of mouse NaPi-2b disclosed in Hilfiker H. et al., Pro Natl Acad Sci USA, 95 (24): 14564-14569, […] and sequences of human and rat NaPi-2a disclosed in Magagnin S. et al., Proc Natl Aca Sci USA, 90 (13): 5979-5983, 1993. RNA was extracted from the rat small intestine using ISOGEN; manufactured by NIPPON GENE CO., LTD (Japan). 400 bp gene fragments were obtained by PCR using, as a template, a cDNA library prepared with a cDNA synthesis kit (manufactured by STRATAGENE (US)). Thereafter, the above rat small intestine cDNA library was screened using the gene fragment as a probe, and the whole gene sequence of rat NaPi-2b was cloned. cRNA was synthesized from the cloned rat NaPi-2b cDNA with a cRNA synthesis kit (manufactured by Ambion (US)). The synthesized cRNA was injected into Xenopus oocytes (obtained from COPACETIC (Japan)) with a liquid microinjector (manufactured by Drummond (US)) and was cultured for 2 days to express rat NaPi-2b. Thereafter, for a group of derivatives, phosphate uptake inhibitory activity were measured using the Xenopus oocytes with ^32P radioactive phosphorus (manufactured by Daiichi Kagaku Inc. (Japan)). […] The inhibitory activity for 300 μM and 100 μM was determined from the same inhibition curve and expressed in percentage inhibition (%) in Table 5.
As for `CCN(CC)CCN(C)Cc1cccc(C(=O)Nc2ccc(I)cc2C(=O)N/N=C/c2ccc(C)c(C)c2)c1` [Compound 476, 3-{[(2-Diethylamino-ethyl)-methyl-amino]-methyl}-N-[2-(3,4-dimethyl-benzylidene-hydrazinocarbonyl)-4-iodo-phenyl]-benzamide], the IC50 is less than 3 µM. In the case of `Cc1ccc(/C=N/NC(=O)c2cc(Br)ccc2NC(=O)c2ccccn2)cc1` [Compound 356, Pyridin-2-carboxylic acid [4-bromo-2-(4-methyl-benzylidene-hydrazinocarbonyl)-phenyl]-amide hydrochloride], the IC50 stood at 0.17 µM. `O=C(Nc1ccc(N2CCCCC2)cc1C(=O)N/N=C/c1ccc(Cl)c(C(F)(F)F)c1)c1cccc(CN2CCN(CCO)CC2)c1` [Compound 868, N-[2-(4-Chloro-3-trifluoromethyl-benzylidene-hydrazinocarbonyl)-4-piperidin-1-yl-phenyl]-3-[4-(2-hydroxy-ethyl)-piperazin-1-ylmethyl]-benzamide]: the half-inhibitory concentration (IC50) is less than 0.3 µM. On to `COc1ccc(/C=N/NC(=O)c2cc(Cl)ccc2NC(=O)c2ccc(CN(C)CCO)cc2)cc1` [Compound 419, N-[4-Chloro-2-(4-methoxy-benzylidene-hydrazinocarbonyl)-phenyl]-4-{[(2-hydroxy-ethyl)-methyl-amino]-methyl}-benzamide], for which the 50% inhibitory concentration (IC50) was 9.2 µM. Consider `O=C(Nc1ccccc1C(=O)N/N=C/c1ccc(F)cc1)c1cccc(F)c1` [Compound 82, 3-Fluoro-N-[2-(4-fluoro-benzylidene-hydrazinocarbonyl)-phenyl]-benzamide], for which the concentration for half-maximal inhibition (IC50) worked out at 6.03 µM. Same read-out and setting: the figure for `Cc1ccc(C)c(/C=N/NC(=O)c2ccccc2NC(=O)c2ccccc2F)c1` [Compound 46, N-[2-(2,5-Dimethyl-benzylidene-hydrazinocarbonyl)-phenyl]-2-fluoro-benzamide] is 7.41 µM. Same read-out and setting: as for `CCN(CC)CCNCc1cccc(C(=O)Nc2scc(C)c2C(=O)N/N=C/c2ccc(C)cc2)c1` [Compound 582, 3-[(2-Diethylamino-ethylamino)-methyl]-N-[4-methyl-3-(4-methyl-benzylidene-hydrazinocarbonyl)-thiophen-2-yl]-benzamide], the figure is less than 3 µM. Same read-out and setting: the figure for `COc1ccc(C(=O)Nc2ccc(C)cc2C(=O)N/N=C/c2ccc(C)c(C)c2)cc1OC` [Compound 150, N-[2-(3,4-Dimethyl-benzylidene-hydrazinocarbonyl)-4-methyl-phenyl]-3,4-dimethoxy-benzamide] is 1.09 µM; for `O=C(Nc1ccc(Br)cc1C(=O)N/N=C/c1ccc(Cl)c(C(F)(F)F)c1)c1ccccn1` [Compound 500, Pyridin-2-carboxylic acid [4-bromo-2-(4-chloro-3-trifluoromethyl-benzylidene-hydrazinocarbonyl)-phenyl]-amide] it is 0.35 µM; for `CCN(CC)CCN(C)Cc1cccc(C(=O)Nc2ccc(Cl)cc2C(=O)N/N=C/c2ccc(O)cc2)c1` [Compound 388, N-[4-Chloro-2-(4-hydroxy-benzylidene-hydrazinocarbonyl)-phenyl]-3-{[(2-diethylamino-ethyl)-methyl-amino]-methyl}-benzamide] it is 19.7 µM. As for `COc1ccc(/C=N/NC(=O)c2cc(Cl)ccc2NC(=O)c2ccc(OC)c(OC)c2)cc1Br` [Compound 98, N-[2-(3-Bromo-4-methoxy-benzylidene-hydrazinocarbonyl)-4-chloro-phenyl]-3,4-dimethoxy-benzamide], the 50% inhibitory concentration (IC50) is 0.62 µM. Regarding `Cc1ccc(/C=N/NC(=O)c2cc(Br)ccc2NC(=O)c2ccc(CSCCO)cc2)cc1C` [Compound 265, N-[4-Bromo-2-(3,4-dimethyl-benzylidene-hydrazinocarbonyl)-phenyl]-4-(2-hydroxy-ethylsulfanylmethyl)-benzamide], the half-maximal inhibitory concentration (IC50) is less than 1 µM. Same read-out and setting: as for `Cc1ccc(/C=N/NC(=O)c2cc(N3CCCCC3)ccc2NC(=O)c2cccc(CNCCN(CCO)CCO)c2)cc1C` [Compound 913, 3-({2-[Bis-(2-hydroxy-ethyl)-amino]-ethylamino}-methyl)-N-[2-(3,4-dimethyl-benzylidene-hydrazinocarbonyl)-4-piperidin-1-yl-phenyl]-benzamide], the figure is 1.65 µM; as for `O=C(Nc1ccccc1C(=O)N/N=C/c1ccccc1Br)c1ccccc1` [Compound 228, N-[2-(2-Bromo-benzylidene-hydrazinocarbonyl)-phenyl]-benzamide], 22.5 µM; as for `CN(Cc1ccc(C(=O)Nc2ccc(Br)cc2C(=O)N/N=C/c2cccc(F)c2)cc1)CC(O)c1ccc(O)cc1` (stereo not shown) [Compound 725, N-[4-Bromo-2-(3-fluoro-benzylidene-hydrazinocarbonyl)-phenyl]-4-({[2-hydroxy-2-(4-hydroxy-phenyl)-ethyl]-methyl-amino}-methyl)-benzamide], 69.4 µM. On the same count and under the same terms, the figure for `CCN(CC)CCN(C)Cc1cccc(C(=O)Nc2ccc(OCCCCF)cc2C(=O)N/N=C/c2cccc(F)c2)c1` [Compound 1057, 3-{[(2-Diethylamino-ethyl)-methyl-amino]-methyl}-N-[2-(3-fluoro-benzylidene-hydrazinocarbonyl)-4-(4-fluoro-butoxy)-phenyl]-benzamide] is 1.26 µM; for `O=C(Nc1ccc(Br)cc1C(=O)N/N=C/c1cccc(F)c1)c1ccc(F)cc1` [Compound 105, N-[4-Bromo-2-(3-fluoro-benzylidene-hydrazinocarbonyl)-phenyl]-4-fluoro-benzamide] it is 7.29 µM; for `COc1ccc(C(=O)Nc2ccc(C)cc2C(=O)N/N=C/c2cccc(C)c2)cc1OC` [Compound 148, 3,4-Dimethoxy-N-[4-methyl-2-(3-methyl-benzylidene-hydrazinocarbonyl)-phenyl]-benzamide] it is 15.6 µM. On the same count and under the same terms, the figure for `O=C(Nc1ccccc1C(=O)N/N=C/c1ccccc1F)c1ccccc1` [Compound 225, N-[2-(2-Fluoro-benzylidene-hydrazinocarbonyl)-phenyl]-benzamide] is 61 µM. For the compound `O=C(Nc1ccc(Br)cc1C(=O)N/N=C/c1ccc(Cl)c(C(F)(F)F)c1)c1cccc(CSc2nc[nH]n2)c1` [Compound 272, N-[4-Bromo-2-(4-chloro-3-trifluoromethyl-benzylidene-hydrazinocarbonyl)-phenyl]-3-(1H-[1,2,4]triazol-3-ylsulfanylmethyl)-benzamide], the IC50 was 0.47 µM.

The same experiment, now with this note: phosphate uptake, oocytes expressing rat NaPi-2b; 300 μM, determined from inhibition curve.
Compound `COc1ccc(/C=N/NC(=O)c2cc(Br)ccc2NC(=O)c2ccc(CNCCCN(C)c3ccccc3)cc2)cc1` [Compound 762, N-[4-Bromo-2-(4-methoxy-benzylidene-hydrazinocarbonyl)-phenyl]-4-{[3-(methyl-phenyl-amino)-propylamino]-methyl}-benzamide] registered an inhibition at 300 µM of 52.1%. `Cc1ccc(CNNC(=O)c2cc(Br)ccc2NC(=O)c2ccccn2)cc1` [Compound 544, Pyridin-2-carboxylic acid {4-bromo-2-[N′-(4-methyl-benzyl)-hydrazinocarbonyl]-phenyl}-amide] registered an inhibition at 300 µM of 60%. `CCN(CC)c1ccc(/C=N/NC(=O)c2ccccc2NC(=O)c2ccc(OC)c(OC)c2)cc1` [Compound 241, N-[2-(4-Diethylamino-benzylidene-hydrazinocarbonyl)-phenyl]-3,4-dimethoxy-benzamide] yielded an inhibition at 300 µM of 46.9%. On the same count and under the same terms, the figure for `CCN(CC)CCN(C)Cc1cccc(C(=O)Nc2cc(OCCOC)c(OCCOC)cc2C(=O)N/N=C/c2ccc(OC)cc2)c1` [Compound 1032, 3-{[(2-Diethylamino-ethyl)-methyl-amino]-methyl}-N-[2-(4-methoxy-benzylidene-hydrazinocarbonyl)-4,5-bis-(2-methoxy-ethoxy)-phenyl]-benzamide] is 40%; for `Cc1ccc(/C=N/NC(=O)c2scc(C)c2NC(=O)c2cccc(CSc3nc[nH]n3)c2)cc1C` [Compound 523, N-[2-(3,4-Dimethyl-benzylidene-hydrazinocarbonyl)-4-methyl-thiophen-3-yl]-3-(1H-[1,2,4]triazol-3-ylsulfanylmethyl)-benzamide] it is 50.1%.
